Values joined by “and” are separate entries in the source; they are usually repeats but may differ in a detail not shown here. Equal entries are not always repeated. Where two headings read alike, the source gives them in different places.
Assays:
BCR‐ABL‐positive ALL = test system: BCR‐ABL‐positive ALL; parameters: method as in PMID 23090679; details: cited from earlier work
[1] = Plasma pharmacokinetics, Cycle 1 (LC-MS, non-compartmental); format: in vivo, human; details: for half-life / Tmax / concentration at 7 days / AUC(0-t) / Cmax: human, plasma, 3 mg; for concentration at 7 days: after 7 days of dosing
Procedure: Blood samples were obtained on Days 1, 2, and 8 of Cycle 1. […] plasma concentrations were measured using liquid chromatography‐mass spectroscopy. Plasma concentration‐time data were analyzed by standard methods using WinNonlin. Pearson's correlation coefficient (r) was used to assess correlation of group variables. Statistical significance was defined as p < 0.05. Additional details are contained in the Supplementary Method: Data S1.
Blood samples (6 ml, sodium heparin) were obtained during the first cycle of treatment before drug administration on Days 1, 2 and 8; and 0.5, 1, 2, 3, 4, and 8 hours after the oral dose was administered on Day 1 and Day 8. After collection, tubes were immediately cooled in an ice water bath and plasma was isolated by centrifugation (10 minutes; 1,100 - 1,300 x g; 4°C) in a refrigerated centrifuge. Plasma samples were frozen immediately and stored at approximately -70°C or lower until analysis.
Plasma concentration-time data were analyzed by standard non-compartmental methods using WinNonlin (Pharsight, Mountain View, CA). Standard descriptive statistics were used to summarize plasma sapanisertib PK parameters. […] Oral steady-state clearance (ClSS/F) was calculated using the equation, ClSS = Dose/AUCτ.

[2] = test system: phospho-4EBP1 (direct mTORC1 substrate) in Jurkat ALL cell line; experiment: Immunoblotting of Jurkat cells treated 24 h with sapanisertib; format: cell-based, human
Source text: FIGURE 2 Effect of MLN0128 concentrations on mTOR‐associated phosphorylation in vitro, ex vivo, and in the context of the present trial. […] (C) Samples harvested from the indicated patients prior to treatment (lanes 1, 4, 6, 8, and 10), on Day 8 prior to therapy (lanes 2, 5, 7, 9, and 11), or at the time of removal from study after 6 weeks (lane 3) were subjected to SDS‐PAGE and blotting for the indicated antigens. Jurkat cells (lane 12) were included in the blot because they were known to be positive for all analytes.[29] The housekeeping protein nucleolin (NCL) served as a loading control.
After samples were dialyzed sequentially into 4 M urea and 0.1% (w/v) SDS, lyophilized and reconstituted in SDS-sample buffer consisting of 4 M urea, 2% (w/v) SDS, […] (pH 6.8 at 4 °C), 10 mM EDTA, and 1% (w/v/) 2-mercaptoethanol, aliquots containing […] of total cellular protein were subjected to SDS-PAGE on gels containing 5-20% polyacrylamide gradients, transferred to nitrocellulose, and probed with antibodies as previously described ^34, 35. […]

[3] = test system: relapsed/refractory acute lymphoblastic leukemia; experiment: Response (modified IWG criteria) and overall survival, Phase II study NCI-9775; format: in vivo, human
Procedure: Evaluable patients for response include all patients who had measurable disease present at baseline, began treatment, and had their disease re‐evaluated. Response was assessed by bone marrow aspirates and biopsies performed every 2 months (mandated at the end of Cycle 2, Cycle 4, and Cycle 6). The best responses were captured as overall responses at any time point. Response was evaluated based on modified response criteria by the International Working Group (IWG) recommendations for acute myeloid leukemia (Table S1).[33]
This was a phase II trial designed using a Simon design with an interim analysis to evaluate efficacy. Efficacy (success) was defined as a complete response (CR or CR incomplete (i)). All patients meeting the eligibility criteria who signed a consent form and began treatment were deemed evaluable for toxicity. […] Thus, this regimen was to be considered ineffective if the success rate was 10% or less (null hypothesis), while the smallest success rate that would warrant subsequent studies was 30% (i.e., alternate research hypothesis). With a maximum of 26 evaluable patients, this trial had 85% power to detect a CR/CRi rate of 30% or greater (vs. 10% or less) with a one‐sided Type I error of 0.09. This trial was designed with a futility analysis after enrollment of 11 patients; if there were one or fewer successes observed in these first 11 patients, the regimen would be considered ineffective, and the study terminated. If two or more successes were observed, the enrollment would continue to a total of 26 evaluable patients. In the final analysis, if five or more of these 26 evaluable patients had achieved a CR or CRi, this would be considered sufficient evidence of promising activity in this patient population. Otherwise, if four or fewer CR/CRi events were observed, this regimen would not warrant further evaluation in this population.
The primary endpoint was the proportion of successes, which was estimated by the number of successes divided by the total number of evaluable patients. Secondary endpoints of duration of response (CR or CRi) and overall survival (OS) were evaluated using Kaplan–Meier techniques; the frequency of proceeding to allogeneic stem cell transplant after achieving response and adverse events (AEs), as evaluated using reported the NCI Common Terminology Criteria for Adverse Events (CTCAE) version 4.0, were presented using descriptive statistics.

Question: With `CC(C)n1nc(-c2ccc3oc(N)nc3c2)c2c(N)ncnc21` [sapanisertib] as the compound, how does the “growth of syngeneic mouse model of BCR‐ABL‐positive ALL” value (BCR‐ABL‐positive ALL) read?
Answer: inhibited growth

Question: What about the “C max, Mean ± SD” value ([1]; Cycle 1 Day 1, 3 mg daily oral) of the same compound?
Answer: 26.1 ± 8.0 ng/mL

Question: What about the “CL, Mean ± SD” value ([1]; Cycle 1 Day 1, 3 mg daily oral) of the same compound?
Answer: 22.0 ± 14.2 L/h

Question: And the “CL, Median (range)” value ([1]; Cycle 1 Day 1, 3 mg daily oral)?
Answer: 22.0 (5.8–49.2) L/hr

Question: And the “CL, Mean ± SD” value ([1]; Cycle 1 Day 8, 3 mg daily oral)?
Answer: 23.3 ± 23.8 L/h

Question: What about the “CL, Median (range)” value ([1]; Cycle 1 Day 8, 3 mg daily oral) of the same compound?
Answer: 16.4 (3.2–82.6) L/hr

Question: And the peak plasma concentration ([1]; Day 1)?
Answer: 84 nM

Question: What about the “time to peak concentration after drug administration” value ([1]; Day 1) of the same compound?
Answer: 2 h

Question: And the “time to peak concentration after drug administration” value ([1]; Day 8)?
Answer: 1.2 h

Question: What about the “time of peak concentration (mean)” value ([1]; Day 8 dose, discussion) of the same compound?
Answer: 1.5 h

Question: What about the mean accumulation ratio ([1]; Day 8 versus Day 1 AUCall) of the same compound?
Answer: 1.4

Question: What about the “half‐life (terminal serum)” value ([1]; discussion) of the same compound?
Answer: 8 h

Question: What about the half-life ([1]; oral, Day 1, read-out: mean elimination half‐life (converted)) of the same compound?
Answer: 8.2 ± 4.9 h

Question: And the Tmax ([1]; oral, Day 1, read-out: time to peak concentration, range)?
Answer: 0.5 to 4.1 h

Question: What about the half-life ([1]; oral, Day 8, read-out: mean half‐life (converted)) of the same compound?
Answer: 24.3 ± 42.5 h

Question: What about the Tmax ([1]; oral, Day 8, read-out: time to peak concentration, range) of the same compound?
Answer: 0.5 to 2.9 h

Question: What about the concentration at 7 days ([1]; oral, read-out: median trough concentration) of the same compound?
Answer: 1.9 ng/mL

Question: What about the concentration at 7 days ([1]; oral, read-out: trough concentration, range) of the same compound?
Answer: 0 to 41.6 ng/mL

Question: What about the AUC(0-t) ([1]; po, Cycle 1 Day 1, 3 mg daily oral, read-out: AUC0–24 h, Mean ± SD) of the same compound?
Answer: 213 ± 143 ng·h/mL

Question: What about the AUC(0-t) ([1]; po, Cycle 1 Day 1, 3 mg daily oral, read-out: AUC0–24 h, Median (range)) of the same compound?
Answer: 213 ng·h/mL

Question: What about the Cmax ([1]; po, Cycle 1 Day 1, 3 mg daily oral, read-out: C max, Mean ± SD) of the same compound?
Answer: 26 ng/mL

Question: What about the Cmax ([1]; po, Cycle 1 Day 1, 3 mg daily oral, read-out: C max, Median (range)) of the same compound?
Answer: 26.5 ng/mL

Question: What about the half-life ([1]; po, Cycle 1 Day 1, 3 mg daily oral, read-out: Half‐life, Mean ± SD (converted)) of the same compound?
Answer: 8.2 ± 4.9 h

Question: And the half-life ([1]; po, Cycle 1 Day 1, 3 mg daily oral, read-out: Half‐life, Median (range) (converted))?
Answer: 7.1 h

Question: And the Tmax ([1]; po, Cycle 1 Day 1, 3 mg daily oral, read-out: T max, Mean ± SD)?
Answer: 1.7 ± 1.1 h

Question: What about the Tmax ([1]; po, Cycle 1 Day 1, 3 mg daily oral, read-out: T max, Median (range)) of the same compound?
Answer: 2 h

Question: What about the AUC(0-t) ([1]; po, Cycle 1 Day 8, 3 mg daily oral, read-out: AUC0–24 h, Mean ± SD) of the same compound?
Answer: 361 ± 337 ng·h/mL

Question: And the AUC(0-t) ([1]; po, Cycle 1 Day 8, 3 mg daily oral, read-out: AUC0–24 h, Median (range))?
Answer: 182 ng·h/mL

Question: What about the Cmax ([1]; po, Cycle 1 Day 8, 3 mg daily oral, read-out: C max, Mean ± SD) of the same compound?
Answer: 34.4 ± 20.9 ng/mL

Question: What about the Cmax ([1]; po, Cycle 1 Day 8, 3 mg daily oral, read-out: C max, Median (range)) of the same compound?
Answer: 29.4 ng/mL

Question: What about the half-life ([1]; po, Cycle 1 Day 8, 3 mg daily oral, read-out: Half‐life, Mean ± SD (converted)) of the same compound?
Answer: 24.3 ± 42.5 h

Question: And the half-life ([1]; po, Cycle 1 Day 8, 3 mg daily oral, read-out: Half‐life, Median (range) (converted))?
Answer: 11.3 h

Question: What about the Tmax ([1]; po, Cycle 1 Day 8, 3 mg daily oral, read-out: T max, Mean ± SD) of the same compound?
Answer: 1.5 ± 0.7 h

Question: And the Tmax ([1]; po, Cycle 1 Day 8, 3 mg daily oral, read-out: T max, Median (range))?
Answer: 1.2 h

Question: What about the “concentration diminishing phosphorylation of 4EBP1 without change in total 4EBP1” value [2] of the same compound?
Answer: 62.5 to 200 nM

Question: What about the “CR or CRi” value ([3]; 3 mg daily 21 of 28 days) of the same compound?
Answer: No patient

Question: What about the Median survival ([3]; 51.0‐NA 95% CI) of the same compound?
Answer: 62 days

Question: And the “best response stable disease, patients” value ([3]; in vivo)?
Answer: 2 patients and 3 patients

Question: And the “best response stable disease, percent of patients” value ([3]; in vivo)?
Answer: 12.5% and 19%

Question: What about the “disease progression, patients” value ([3]; in vivo) of the same compound?
Answer: 6 patients

Question: And the “disease progression, percent of patients” value ([3]; in vivo)?
Answer: 38%

Question: What about the “not evaluable because of early discontinuation, patients” value ([3]; in vivo) of the same compound?
Answer: 7 patients

Question: What about the “not evaluable because of early discontinuation, percent” value ([3]; in vivo) of the same compound?
Answer: 44%
